In patent US8354428B2, “Solid state forms of laquinimod and its sodium salt” (Actavis Group PTC EHF, priority 2008, dated 2013):

Tests used:
Format in all cases: physicochemical
[1] = Polymorphic stability on storage in LDPE bag, checked by P-XRD
Experimental: (§1) The X-Ray powder diffraction was measured by an X-ray powder diffractometer equipped with a Cu-anode (λ=1.54 Angstrom), X-ray source operated at 40 kV, 40 mA and a Ni filter is used to strip K-beta radiation. Two-theta calibration is performed using an NIST SRM 1976, Corundum standard. The sample was analyzed using the following instrument parameters: measuring range=3-45° 20; step width=0.01579°; and measuring time per step=0.11 second. Infra-Red Spectroscopy (FT-IR): FT-IR spectroscopy was carried out with a Perkin Elmer Spectrum 100 series spectrometer. For the production of the KBr compacts approximately 2 mg of sample was powdered with 200 mg of KBr. The spectra were recorded in transmission mode ranging from 3800 to 450 cm^−1. Differential Scanning Calorimetry (DSC): DSC (Differential Scanning calorimetry) measurements were performed with a Differential Scanning calorimeter (Perkin Elmer diamond DSC) at a scan rate of 10° C. per minute. Bulk Density Method of Analysis About 10 g of sample was placed in a 25 mL measuring cylinder and measured the volume using the following formula: Bulk density=Weight of the sample (g)/Volume of the sample (mL) Tap Density Method of Analysis
Laquinimod sodium crystalline Form A1 was prepared according to the process exemplified in Example 2 and was packed in a self-sealing low-density polyethylene (LDPE) bag. […]

[2] = Tap density method of analysis (Sotax tapping instrument, USP II); conditions: about 10 g sample, tapped to constant volume
Experimental: About 10 g of sample was placed in a 25 mL measuring cylinder and measured the initial volume. The measuring cylinder was kept in a Sotax Tapping instrument (USP II) and measured the volume of the sample every 50 tappings until a constant volume is obtained using the following formula: Tap Density=Weight of the sample (g)/constant Volume of the sample after tapping (mL)

[3] = Bulk density method of analysis; conditions: about 10 g sample in 25 mL measuring cylinder
Experimental: as §1

[4] = Particle size distribution by laser diffraction (Malvern Master Sizer 2000); conditions: 90 volume-percent of particles below this diameter
Source text: As used herein, “Particle Size Distribution (P.S.D)” means the cumulative volume size distribution of equivalent spherical diameters as determined by laser diffraction in Malvern Master Sizer 2000 equipment or its equivalent. As used herein, DX means that X percent of the particles have a diameter less than a specified diameter D. Thus, a D90 or d(0.9) of less than 300 microns means that 90 volume-percent of the particles in a composition have a diameter less than 300 microns.

## CCN(C(=O)c1c(O)c2c(Cl)cccc2n(C)c1=O)c1ccccc1.[Na] [laquinimod sodium crystalline Form A1, N-ethyl-N-phenyl-1,2-dihydro-4-hydroxy-5-chloro-1-methyl-2-oxoquinoline-3-carboxamide sodium]
[1]; stored 3 months at about 40±2° C., relative humidity about 75±5%
  Polymorphic stability (maintenance of the original P-XRD pattern): retain its polymorphic form
[1]; stored 6 months at 25±2° C., relative humidity about 60±5%
  Polymorphic stability (maintenance of the original P-XRD pattern): retain its polymorphic form
[2]
  Tapped density: 0.476 g/mL
[3]
  Bulk density: 0.333 g/mL
[4]
  Particle size distribution d(0.9): 26.3 microns
